In ChEMBL document CHEMBL5126651, “ALK Inhibitors for Treating Cancer, Blood, and Kidney Diseases” (ACS Med Chem Lett, 2022):

Assays:
[1] = molecular target: T1, TGF-beta receptor type-1 (Homo sapiens, UniProt P36897); test: Displacement of Alexa Fluor labeled tracer 178 from ALK5 (unknown origin) using anti-GST antibody incubated for 60 mins by TR-FRET based LanthaScreen Eu-Kinase binding assay
T1 sequence (P36897 whole entry): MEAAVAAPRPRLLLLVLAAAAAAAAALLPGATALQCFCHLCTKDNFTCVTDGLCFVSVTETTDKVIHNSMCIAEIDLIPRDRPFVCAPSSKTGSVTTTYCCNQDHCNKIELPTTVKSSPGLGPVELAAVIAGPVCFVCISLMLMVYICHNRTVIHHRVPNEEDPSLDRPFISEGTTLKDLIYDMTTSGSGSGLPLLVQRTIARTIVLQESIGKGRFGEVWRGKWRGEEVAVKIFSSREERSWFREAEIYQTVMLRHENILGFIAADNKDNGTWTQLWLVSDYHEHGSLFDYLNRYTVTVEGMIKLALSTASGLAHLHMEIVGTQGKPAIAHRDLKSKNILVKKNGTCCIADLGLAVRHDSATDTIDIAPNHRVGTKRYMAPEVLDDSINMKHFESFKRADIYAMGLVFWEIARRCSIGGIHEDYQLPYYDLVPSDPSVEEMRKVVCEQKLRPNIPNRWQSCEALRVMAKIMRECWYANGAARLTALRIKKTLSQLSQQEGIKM

[2] = organism: Homo sapiens; test: Selectivity ratio of IC50 for ALK2 (unknown origin) to IC50 for ALK5 (unknown origin)
[3] = molecular target: T2, TGF-beta receptor type-1 (Homo sapiens) (UniProt P36897); test: Inhibition of TGF-beta receptor 1 in human RD cells transfected with Smad reporter plasmid by reporter gene based One-Glo luciferase assay; assay type: cell-based
T2 sequence (whole entry): T1 sequence (P36897 whole entry)

IC50 [1] [nM]	Ratio IC50 [2]	INH [3] [nM]	Compound
≤ 10	> 10	< 100	Cc1cccc2c(Nc3ccnc(Nc4cccc(CN5CCN(C)CC5)c4)n3)cnnc12
≤ 10	10	< 100	Cc1cccc2c(Nc3ccnc(Nc4ccc(N5CCOCC5)c(Cl)c4)n3)cnnc12
≤ 10	> 10	< 100	Cc1cccc2c(Nc3ccnc(Nc4cc(F)cc(CN5CCNCC5)c4)n3)cnnc12
≤ 10	10	< 100	Cc1cc(F)cc2c(Nc3ccnc(Nc4ccc(N5CCN(C)CC5)cc4)n3)cnnc12
≤ 10	10	< 100	Cc1cccc2c(Nc3ccnc(Nc4ccc(N5CCOCC5)cc4)n3)cnnc12
< 1000	10	< 1000	Cc1cccc2c(Nc3ccnc(Nc4ccc(CC5CCNCC5)cc4)n3)cnnc12
≤ 10	10	< 100	Cc1c(F)ccc2c(Nc3ccnc(Nc4ccc(N5CCN(C)CC5)cc4)n3)cnnc12
≤ 10	10	< 100	Cc1cccc2c(Nc3ccnc(Nc4cccc(N5CCOCC5)c4)n3)cnnc12
10	> 10	< 1000	Cc1cccc2c(Nc3nc(Nc4cc(CN5CCNCC5)ccc4F)ncc3F)cnnc12
≤ 10	10	< 100	Cc1cccc2c(Nc3ccnc(Nc4ccc(N5CCNCC5)c(F)c4)n3)cnnc12
≤ 10	10	< 100	Cc1c(F)ccc2c(Nc3ccnc(Nc4ccc(N5CCNCC5)cc4)n3)cnnc12
≤ 10	10	< 1000	Cc1cccc2c(Nc3ccnc(Nc4cc(CN5CCNCC5)ccc4F)n3)cnnc12
